Laboratory results from US20150246136A1, “NOVEL BINDER-DRUG CONJUGATES (ADCs) AND USE OF SAME” (priority 2011, published 2015).

Experiment: Pharmacokinetics in the HT29 tumor model, non-transfected tumors
Type: in vivo
Conditions: after i.v. 16 mg/kg Example 60
Experimental: C-2.3 Pharmacokinetics in the HT29 Tumor Model with Mesothelin-Transfected HT29 Cells and Non-Transfected Cells
After i.v. administration of 16 mg/kg from Example 60, the plasma and tumor concentrations of Example 60 were measured along with potentially occurring metabolites such as those of Example 119, for example. […] In the animals with non-transfected tumors, the exposure in the plasma in Example 119 was identical to the exposure in the plasma of animals with transfected tumors. […] This is indicative of a definite targeting effect in the tumor in the presence of the antigen.
Analysis for Quantitation of the Compound from Example 119 […]
In workup of a tumor, it was mixed with a four-fold amount of methanol. […] After agitating again, the tumor sample was ready for measurement.
Finally, the measurement of both matrix samples was performed on the HPLC coupled atmospheric pressure ionization/tandem mass spectrometer by means of turbo ion spray interface (TISP) on an API4000 instrument from the company SCIEX. The following m/z transitions were measured: […]
For the calibration, plasma samples with concentrations of 0.5-2000 μg/L were mixed. The limit of quantitation (LOQ) was 2 μg/L. The linear range was from 2 to 1000 μg/L. […]

CC[C@H](C)[C@@H]([C@@H](CC(=O)N1CCC[C@H]1[C@H](OC)[C@@H](C)C(=O)N[C@@]1(C(=O)N2CCCCO2)C[C@@H]1c1ccccc1)OC)N(C)C(=O)[C@@H](NC(=O)[C@H](C(C)C)N(C)CCCC(=O)NNC(=O)CCCCCN1C(=O)CC(SC[C@H](N)C(=O)O)C1=O)C(C)C (stereo partly drawn) [Example 119, N-(4-{2-[6-(3-{[(2R)-2-amino-2-carboxyethyl]sulfanyl}-2,5-dioxopyrrolidin-1-yl)hexanoyl]hydrazino}-4-oxobutyl)-N-methyl-L-valyl-N-[(3R,4S,5S)-3-methoxy-1-{(2S)-2-[(1R,2R)-1-methoxy-2-methyl-3-{[(1S,2R)-1-(1,2-oxazinan-2-ylcarbonyl)-2-phenylcyclopropyl]amino}-3-oxopropyl]pyrrolidin-1-yl}-5-methyl-1-oxoheptan-4-yl]-N-methyl-L-valinamide]
AUC in the tumor versus transfected animals: approx. eight times lower
exposure in the plasma versus animals with transfected tumors: identical
